The values below come from paper PMC5372089, “Synthesis and biological evaluation of novel ursolic acid analogues as potential α-glucosidase inhibitors” (Scientific Reports, 2017).

The target of the first assay is T1, α-glucosidase from baker's yeast (Saccharomyces cerevisiae, UniProt P53341).
T1 sequence (P53341 whole entry): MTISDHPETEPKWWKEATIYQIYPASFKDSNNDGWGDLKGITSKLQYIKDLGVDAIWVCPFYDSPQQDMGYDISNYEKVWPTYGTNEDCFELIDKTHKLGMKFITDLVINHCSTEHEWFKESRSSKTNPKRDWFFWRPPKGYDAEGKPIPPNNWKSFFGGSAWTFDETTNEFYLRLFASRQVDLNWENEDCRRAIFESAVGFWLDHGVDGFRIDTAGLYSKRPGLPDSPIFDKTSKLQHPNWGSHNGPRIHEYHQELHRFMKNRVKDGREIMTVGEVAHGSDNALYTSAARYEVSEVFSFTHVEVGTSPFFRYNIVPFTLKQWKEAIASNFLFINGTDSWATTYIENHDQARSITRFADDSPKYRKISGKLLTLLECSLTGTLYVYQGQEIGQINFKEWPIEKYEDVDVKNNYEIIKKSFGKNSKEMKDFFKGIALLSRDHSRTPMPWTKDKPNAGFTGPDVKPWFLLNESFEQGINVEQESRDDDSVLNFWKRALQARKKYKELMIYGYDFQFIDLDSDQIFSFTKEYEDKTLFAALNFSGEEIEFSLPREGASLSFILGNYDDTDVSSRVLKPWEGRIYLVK
Test: not given
As to conditions: UA hydroxyl group oxidized into ketone; cited from earlier work. Further details: method as in PMID 26406581.
Usually IC50 stands for the concentration that inhibits the measured activity by half. As to `C[C@@H]1CC[C@]2(C(=O)O)CC[C@]3(C)C(=CCC4[C@@]5(C)CCC(=O)C(C)(C)C5CC[C@]43C)C2[C@H]1C` (stereo partly drawn) [UA-O], the IC50 is 2.47 ± 0.14 µM.

The next assay addresses T1, α-glucosidase from baker's yeast. The assay is described as follows: In vitro α-glucosidase inhibition assay (PNPG substrate, absorbance at 405 nm). Type of assay: biochemical.
Details: not given
As for the experimental part:
In this assay, α-glucosidase from baker’s yeast has been selected and used in this model according to the procedure described in the previous study with a slight modification. The activity of α-glucosidase was determined by monitoring p-nitrophenol (PNP) released from p-nitrophenol-α-D-glycopyranoside (PNPG) at 405 nm. All examined samples of UA analogues were dissolved in DMSO to generate the stock solution, with the concentrations ranging from 5 μM to 4000 μM. During the enzyme inhibitory assay, each sample’s stock solution was diluted with 0.1 M phosphate buffer solution (pH = 6.8), and the final concentration of enzyme solution was 0.1 U/mL. Then 10 min pre-incubation at 37 °C was conducted. After that, the substrate (PNPG, 1 mmol/L) was added to initiate the reaction. The reaction was incubated for 30 min at 37 °C before it was terminated by adding 1 mol/L Na2CO3 solution, and the optical density value was measured at 405 nm by using a Multimodel Plate Reader (Infinite 200). Each assay was performed three times.
The enzyme activity was measured at a fixed substrate concentration, in which a series of sample concentrations were introduced. The IC50 value was […] relative to a control assay with no inhibitor added.
The α-glucosidase inhibition assay was performed according to the method of Worawalai[32] with a slight modification. The α-glucosidase enzyme (0.1 U/mL) and substrate (1 mM p-nitrophenyl-α-D-glucopyranoside) were dissolved in 0.1 M phosphate buffer, pH 6.8. 10 μL of each synthesized analogue (1 mg/mL in DMSO) was pre-incubated with 8 μL of α-glucosidase at 37 °C for 10 min. A 100 μL of substrate solution was then added to the reaction mixture, which was further incubated at 37 °C for 30 min. Then, the reaction was terminated by adding 100 μL of 1 M Na2CO3 solution. Enzymatic activity was quantified by measuring the absorbance at 405 nm with a use of a Multimodel Plate Reader (Infinite 200). The percentage of inhibition was calculated by using [(A0 − A1)/A0] × 100%, where A0 was the absorbance without the sample, and A1 was the absorbance with the sample. The IC50 value was determined from a plot of the percentage of inhibition versus the sample concentration.
On to `C[C@@H]1CC[C@]2(C(=O)O)CC[C@]3(C)C(=CCC4[C@@]5(C)CC[C@H](OC(=O)C(Cl)Cl)C(C)(C)C5CC[C@]43C)C2[C@H]1C` (stereo partly drawn) [UA-03], for which the concentration for half-maximal inhibition (IC50) was found to be 6.72 ± 0.33 µM. Molecule `C[C@@H]1CC[C@]2(C(=O)O)CC[C@]3(C)C(=CCC4[C@@]5(C)CC[C@H](OC(=O)c6ccco6)C(C)(C)C5CC[C@]43C)C2[C@H]1C` (stereo partly drawn) [UA-02] gave a concentration for half-maximal inhibition (IC50) of 2.51 ± 0.02 µM.

Molecule `C[C@@H]1CC[C@]2(C(=O)O)CC[C@]3(C)C(=CCC4[C@@]5(C)CC[C@H](OC(=O)c6ccccc6)C(C)(C)C5CC[C@]43C)C2[C@H]1C` (stereo partly drawn) [UA-01] came in with a concentration for half-maximal inhibition (IC50) of 4.98 ± 0.21 µM. Same read-out and setting: the same measure for `C[C@@H]1CC[C@]2(C(=O)O)CC[C@]3(C)C(=CCC4[C@@]5(C)CC[C@H](OC(=O)c6ccc(Br)cc6F)C(C)(C)C5CC[C@]43C)C2[C@H]1C` (stereo partly drawn) [UA-04]: 3.94 ± 0.1 µM; for `C[C@@H]1CC[C@]2(C(=O)O)CC[C@]3(C)C(=CCC4[C@@]5(C)CC[C@H](O)C(C)(C)C5CC[C@]43C)C2[C@H]1C` (stereo partly drawn) [UA, (1S,2R,4aS,6aS,6bR,10S,12aR) -10-hydroxy-1,2,6a,6b,9,9,12a-heptamethyl-1,2,3,4,4a,5,6,6a,6b,7,8,8a,9,10,11,12,12a,12b,13,14b-icosahydropicene-4a-carboxylic acid, reference compound]: 5.08 ± 0.7 µM.

The assay is the same for the next values; noted with them: UA ester derivatives (Table 1); enzyme 0.1 U/mL, PNPG 1 mM, pH 6.8, 37 °C; mean ± SD; read-out: IC50.
“(1S,2R,4R,6aS,6bR,10S,12aR)-1,2,6a,6b,9,9,12a-heptamethyl-10-((4-methylpiperazine-1-carbonyl) oxy)-1,2,3,4,4a,5,6,6a,6b,7,8,8a,9,10,11,12,12a,12b,13,14b-icosahydropicene-4-carboxylic acid [UA-05]”: the IC50 came to 15.2 ± 0.47 µM.

The same assay, now with this note: UA-O and analogues UA-O-a~UA-O-j (Table 2); enzyme 0.1 U/mL, PNPG 1 mM, pH 6.8, 37 °C; mean ± SD; read-out: IC50.
For “(1S,2R,4R,6aS,6bR,12aR)-1,2,6a,6b,9,9,12a-heptamethyl-11-((Z)-4-methylbenzylidene)-10-oxo-1,2,3,4,4a,5,6,6a,6b,7,8,8a,9,10,11,12,12a,12b,13,14b-icosahydropicene-4-carboxylic acid [UA-O-j]”, the IC50 was found to be 1.27 ± 0.2 µM. Consider `C[C@@H]1CC[C@]2(C(=O)O)CC[C@]3(C)C(=CCC4[C@@]5(C)CCC(=O)C(C)(C)C5CC[C@]43C)C2[C@H]1C` (stereo partly drawn) [UA-O], for which the half-maximal inhibitory concentration (IC50) was 2.47 ± 0.14 µM.

For the molecule “(1S,2R,4R,6aS,6bR,12aR)-11-((Z)-3-chlorobenzylidene)-1,2,6a,6b,9,9,12a-heptamethyl-10-oxo-1,2,3,4,4a,5,6,6a,6b,7,8,8a,9,10,11,12,12a,12b,13,14b-icosahydropicene-4-carboxylic acid [UA-O-e]”, the IC50 was 3.22 ± 0.78 µM. As to “(1S,2R,4R,6aS,6bR,12aR)-1,2,6a,6b,9,9,12a-heptamethyl-10-oxo-11-((Z)-4-(trifluoromethyl) benzylidene)-1,2,3,4,4a,5,6,6a,6b,7,8,8a,9,10,11,12,12a,12b,13,14b-icosahydropicene-4-carboxylic acid [UA-O-i]”, the IC50 worked out at 0.71 ± 0.04 µM. The same measure, in the same setting: the same measure for “(1S,2R,4R,6aS,6bR,12aR)-1,2,6a,6b,9,9,12a-heptamethyl-11-((Z)-4-nitrobenzylidene)-10-oxo-1,2,3,4,4a,5,6,6a,6b,7,8,8a,9,10,11,12,12a,12b,13,14b-icosahydropicene-4-carboxylic acid [UA-O-d]”: 1.49 ± 0.14 µM; for “(1S,2R,4R,6aS,6bR,12aR,Z)-1,2,6a,6b,9,9,12a-heptamethyl-10-oxo-11-((6-(trifluoromethyl) pyridin-3-yl) methylene)-1,2,3,4,4a,5,6,6a,6b,7,8,8a,9,10,11,12,12a,12b,13,14b-icosahydropicene-4-carboxylic acid [UA-O-f]”: 4.87 ± 0.41 µM. On to “(1S,2R,4R,6aS,6bR,12aR,Z)-11-((E)-3-(4-fluorophenyl) allylidene)-1,2,6a,6b,9,9,12a-heptamethyl-10-oxo-1,2,3,4,4a,5,6,6a,6b,7,8,8a,9,10,11,12,12a,12b,13,14b-icosahydropicene-4-carboxylic acid [UA-O-c]”, for which the half-maximal inhibitory concentration (IC50) turned out to be 7.49 ± 0.29 µM. With “(1S,2R,4R,6aS,6bR,12aR)-11-((Z)-benzylidene)-1,2,6a,6b,9,9,12a-heptamethyl-10-oxo-1,2,3,4,4a,5,6,6a,6b,7,8,8a,9,10,11,12,12a,12b,13,14b-icosahydropicene-4-carboxylic acid [UA-O-a]”, the IC50 stood at 1.17 ± 0.09 µM. “(1S,2R,4R,6aS,6bR,12aR,Z)-1,2,6a,6b,9,9,12a-heptamethyl-10-oxo-11-(thiazol-2-ylmethylene)-1,2,3,4,4a,5,6,6a,6b,7,8,8a,9,10,11,12,12a,12b,13,14b-icosahydropicene-4-carboxylic acid [UA-O-h]”: the IC50 was found to be 3.32 ± 0.17 µM. As to “(1S,2R,4R,6aS,6bR,12aR,Z)-1,2,6a,6b,9,9,12a-heptamethyl-10-oxo-11-(pyrazin-2-ylmethylene)-1,2,3,4,4a,5,6,6a,6b,7,8,8a,9,10,11,12,12a,12b,13,14b-icosahydropicene-4-carboxylic acid [UA-O-g]”, the IC50 is 7.87 ± 0.34 µM.

With “(1S,2R,4R,6aS,6bR,12aR,Z)-1,2,6a,6b,9,9,12a-heptamethyl-10-oxo-11-((E) -3-phenylallylidene)-1,2,3,4,4a,5,6,6a,6b,7,8,8a,9,10,11,12,12a,12b,13,14b-icosahydropicene-4-carboxylic acid [UA-O-b]”, the 50% inhibitory concentration (IC50) came to 10.3 ± 0.55 µM.
